Molecular target: T1, S. pneumoniae SpxB (pyruvate oxidase) (Streptococcus pneumoniae, UniProt A0A0H2ZP58)
T1 construct: recombinant from E. coli Rosetta BL21(DE3)/pLysS, pHis-parallel vector, His tag apparently kept
Assay: H2O2 generation, peroxidase-coupled quinoneimine dye at […] nm
Format: biochemical
Settings: 0.2 mM pyruvate, 50 mM KH2PO4 pH 6, 0.2 mM FAD, 0.2 mM TPP, 0.5 to 2 mM Mg(II) or Mn(II), 37 °C

T1 sequence (A0A0H2ZP58 entry or part of it): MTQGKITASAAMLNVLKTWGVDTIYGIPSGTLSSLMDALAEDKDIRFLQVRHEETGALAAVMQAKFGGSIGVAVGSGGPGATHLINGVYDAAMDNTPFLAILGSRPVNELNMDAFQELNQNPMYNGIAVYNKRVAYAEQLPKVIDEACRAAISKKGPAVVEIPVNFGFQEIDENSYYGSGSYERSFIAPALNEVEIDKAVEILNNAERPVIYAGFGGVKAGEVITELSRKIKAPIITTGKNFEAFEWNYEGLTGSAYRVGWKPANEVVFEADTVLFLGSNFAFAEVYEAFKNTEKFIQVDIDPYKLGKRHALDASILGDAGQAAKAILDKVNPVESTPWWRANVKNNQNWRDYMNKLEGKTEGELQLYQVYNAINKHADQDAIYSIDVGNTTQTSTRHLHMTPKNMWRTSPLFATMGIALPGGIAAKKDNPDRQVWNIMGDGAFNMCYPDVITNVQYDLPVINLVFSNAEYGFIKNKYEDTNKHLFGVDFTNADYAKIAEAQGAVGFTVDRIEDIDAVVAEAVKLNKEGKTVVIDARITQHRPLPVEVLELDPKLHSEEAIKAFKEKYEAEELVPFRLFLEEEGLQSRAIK

SMILES: CC(=O)C(=O)O [sodium pyruvate]
- H2O2 generation, peroxidase-coupled quinoneimine dye at 550 nm: Quinoneimine dye formation was monitored in triplicate with the addition of sodium pyruvate

Source: publication PMC5214746, “Biological and Chemical Adaptation to Endogenous Hydrogen Peroxide Production in Streptococcus pneumoniae D39” (mSphere, 2017)
